# Experimental data published in PubChem BioAssay AID602296 (Broad Institute, 2012).
# Inconclusive results are not listed. Calls of active or inactive are those of the source.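 How the source made its calls: active means fitted activation curve crossing 40% at a concentration no higher than the sample's top valid tested dose; inconclusive means flat fitted curve at 30% to 70% activation, or poor curve fit; inactive means signal decrease, flat curve within 30%, or the rest.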
# Test system: NIH3T3-HGL HSF-1 response element luciferase, 48 h
# Assay: sustained heat shock response element induction – cell-based, mouse, luciferase, cherry-pick, dose, confirmation (AID 602296);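 further: test compounds applied by themselves with no MG132 co-treatment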
row,Compound,AC40
1,S=C(NC1CCCCC1)NC1CC2C=CC1C2 (stereo unspecified),> 26 µM (inactive)
2,COc1cc(SSc2cc(OC)cc([N+](=O)[O-])c2N)c(N)c([N+](=O)[O-])c1,17.9 µM
3,Cc1cc(C)n(CC(O)COc2ccc(Cl)cc2Cl)n1 (stereo unspecified),5.12 µM
4,COc1ccccc1CN1CC(C(=O)NCCc2ncccc2C)CCC1=O (stereo unspecified),24.8 µM
5,S=C1NC(c2ccccc2)=NCN1c1ccc(Br)cc1,8.41 µM
6,Cn1cc(C=O)c(-c2ccc3c(c2)OCCCO3)n1,3.77 µM
7,N=c1sccn1CC(=O)Nc1cc(Cl)ccc1Oc1ccccc1,> 26 µM (inactive)
8,Cc1ccc(S(=O)(=O)CCN2CCN(c3ccccc3)CC2)cc1,> 26 µM (inactive)
9,CC1=Nc2cc(C(=O)O)ccc2Sc2c(C)ccc(C)c21,> 26 µM (inactive)
10,Cc1ccc(-n2cc(CNCCN3CCOC3=O)c(-c3cccc(C)c3)n2)cc1,17.4 µM
11,N#CCCn1cc(C=C(C#N)C#N)c(-c2ccc(-c3ccccc3)cc2)n1,> 12 µM (inactive)
12,Cc1ccc(/C=C2/NC(=O)N(Cc3ccc(Br)cc3)C2=O)o1,> 26 µM (inactive)
13,COC(=O)c1ccc(OC(=O)CCN2C(=O)C3CCCCC3C2=O)cc1 (stereo unspecified),> 26 µM (inactive)
14,CC(C)CCN=CC1=C(O)CC(c2ccccc2)CC1=O (stereo unspecified),> 26 µM (inactive)
15,CC(C)(CN)CC(=O)O,> 26 µM (inactive)
16,CC(C)(C)NC(=O)NC(=O)CN1CC=C(c2ccccc2)CC1,> 26 µM (inactive)
17,C=CCC(NCc1ccco1)c1ccc(OC)c(OC)c1 (stereo unspecified),> 26 µM (inactive)
18,COCCNC(=S)N/N=C/c1ccc(N2CCOCC2)cc1,> 26 µM (inactive)
19,O=C(CSc1nccn(-c2ccc(F)c(F)c2)c1=O)NC1CCCC1,> 26 µM (inactive)
20,S=c1sc2c(Cl)ncnc2n1-c1ccccc1,> 12 µM (inactive)
21,NS(=O)(=O)c1ccc(NC(=O)CN2C(=O)CCC2=O)cc1,> 26 µM (inactive)
22,O=C(C1CCC(CNS(=O)(=O)c2cccc3nsnc23)CC1)N1CCN(c2ccccn2)CC1 (stereo unspecified),> 26 µM (inactive)

row,Compound,AC40
1,COc1ccc(-n2cnnc2SCC(=O)N(C)C2CCS(=O)(=O)C2)cc1 (stereo unspecified),> 26 µM (inactive)
2,Cn1ncc(Br)c1C(=O)N1CCOCC1,> 26 µM (inactive)
3,COc1ccc(-c2nc3scc(-c4ccccc4)n3n2)cc1,3.34 µM
4,Cc1nonc1OCCNCCNc1ccc([N+](=O)[O-])cc1Cl,> 26 µM (inactive)
5,Cc1cc(C)cc(OCC(O)CN2C(=O)NC(C)(C)C2=O)c1 (stereo unspecified),> 26 µM (inactive)
6,COc1cc2c(cc1OC)C(CCc1ccccc1)=NCC2,> 26 µM (inactive)
7,Nc1cc(-c2ccco2)no1,> 26 µM (inactive)
8,CCN(/N=C/C=C/c1ccccc1)c1cc(=O)n(C)c(=O)[nH]1,> 26 µM (inactive)
9,COc1cccc(/C=N/NC(=S)NC2CC3CC2C2C=CCC32)c1O (stereo unspecified),> 26 µM (inactive)
10,O=C(O)CSc1nnnn1-c1ccc2c(c1)OCCO2,> 26 µM (inactive)
11,Cc1cccc(N2CCN(c3cccc(C)c3)C2c2cccnc2)c1,> 12 µM (inactive)
12,CSc1ccc(Cl)c(C(=O)OCC(=O)N(C)CCC#N)c1,> 26 µM (inactive)
13,Cn1c(C(=O)OC(C(=O)NC(C)(C)C)c2cccnc2)cc2sccc21 (stereo unspecified),> 26 µM (inactive)
14,O=C(O)c1csc(N/N=C/c2ccc(Br)cc2)n1,> 26 µM (inactive)
15,CCOc1cc(N2CCOCC2)c(OCC)cc1NC(=O)Cc1cccc2ccccc12,> 26 µM (inactive)
16,COC(=O)c1ccc(CSc2ncnc3c2oc2ccccc23)o1,> 26 µM (inactive)
17,CCN(CC)S(=O)(=O)c1ccc(C(=O)NN(C)C2=NS(=O)(=O)c3ccccc32)cc1,> 26 µM (inactive)
18,Cc1ccc2nc(SCC(=O)NCc3ccc(F)cc3)[nH]c2c1,> 26 µM (inactive)
19,CCOC(=O)Nc1ccc(C(=O)Oc2ccccc2)c(O)c1,14.2 µM
20,COC(=O)[C@@H](Cc1c[nH]c2ccccc12)NC(=O)c1ccc2c(c1)OCO2,3.28 µM
21,COc1cc(OC)c(OC)cc1CN(C)CCc1ccccn1,25.8 µM
22,Cc1nc2ncnn2c(C)c1CCC(=O)NCc1ccco1,> 26 µM (inactive)

row,Compound,AC40
1,NC(=O)CSC1=N/C(=C\c2ccco2)C(=O)N1c1ccc(OC(F)F)cc1,8.11 µM
2,c1ccc(SCCOCCN2CCOCC2)cc1,> 26 µM (inactive)
3,COC(=O)CC1C(=O)NCCN1C(=O)c1ccc(S(=O)(=O)N2CCOCC2)cc1 (stereo unspecified),> 26 µM (inactive)
4,COc1cc2[nH]c(=S)n(Cc3ccco3)c(=O)c2cc1OC,> 26 µM (inactive)
5,COc1ccc(C(=O)NCC(=O)OCC(=O)c2ccc3c(c2)NC(=O)CO3)cc1,> 26 µM (inactive)
6,CN(CCC1CCCCO1)C(=O)CCc1nnc(CCCCc2ccccc2)o1 (stereo unspecified),5.66 µM
7,O=C(CN1C(=O)NC2(CCCC2)C1=O)NCCN1C(=O)S/C(=C\c2ccccc2F)C1=O,> 26 µM (inactive)
8,O=C1c2ccccc2C(=O)N1CCC(=O)N1CCCc2ccccc21,> 26 µM (inactive)
9,O=C(Cc1c(O)c2ccccc2[nH]c1=O)NCc1ccccc1,> 26 µM (inactive)
10,Cc1cc(C(=O)N2CCN(c3ccccn3)CC2)c(C)o1,> 26 µM (inactive)
11,CCOC(=O)c1sc(C)c2c1NC(C)(c1cccc3ccccc13)NC2=O (stereo unspecified),> 26 µM (inactive)
12,COc1ccc2cc(/C=C/C(=O)N3CCN(CC(=O)N4CCCCCC4)CC3)ccc2c1,12.6 µM
13,C=CCn1c(=O)c2ccccc2n2c(SCC(=O)Nc3sc(C)c(CC)c3C(=O)OCC)nnc12,> 26 µM (inactive)
14,CSc1ccc(/C=N\Nc2nncn2N)cc1,> 26 µM (inactive)
15,COc1ccc(-n2cc(CNCc3cccnc3)c(-c3cccc(F)c3)n2)cc1,> 26 µM (inactive)
16,c1ccc(CCc2ccncc2)cc1,> 26 µM (inactive)
17,CN(Cc1ccccc1)C(=O)CCC1CCN(C(=O)CC2=CCCCC2)CC1,> 26 µM (inactive)
18,CCOC(=O)/C=C(\C)Nc1cc(C)nn1-c1ccccc1,17.2 µM
19,O=C(CN1CCOCC1)N(c1ccccc1)c1ccc2ccccc2c1,14.6 µM
20,Cc1cccc(C)c1NC(=O)COC(=O)c1cccc2c1C(=O)c1ccccc1C2=O,> 26 µM (inactive)
21,CCCCc1cc(O)c(CCCC)c(O)c1,4.58 µM
22,CC(CC#CCN1CCOCC1)OCCC#N (stereo unspecified),> 26 µM (inactive)

row,Compound,AC40
1,O=C(CSCc1ccc(Br)cc1)N1CCCC1,11.3 µM
2,Cc1cccc(CN(C(=S)Nc2c(C)cccc2C)c2cccnc2)c1,24.7 µM
3,Cc1occc1C(=O)NNS(=O)(=O)c1ccc([N+](=O)[O-])cc1,> 26 µM (inactive)
4,COC(=O)C(C)Sc1nc2c(c(=O)n(C)c(=O)n2C)n1CCC(C)C (stereo unspecified),> 26 µM (inactive)
5,Cc1nc(S(=O)(=O)c2ccc(Cl)cc2)c(NCc2ccccc2)o1,> 26 µM (inactive)
6,COc1cccc(CNC(=O)Cn2nc(C)c([N+](=O)[O-])c2C)c1,> 26 µM (inactive)
7,Cc1ccc(CNc2c(C=O)c(=O)[nH]c3ccccc23)cc1,> 26 µM (inactive)
8,O=C(CSc1ccc(Cl)cc1)N1CCN(c2c(Cl)cccc2[N+](=O)[O-])CC1,3.34 µM
9,CCOC(=O)C1CCCN(C(=O)c2sc3nc(C)nc(N(CC)CC)c3c2C)C1 (stereo unspecified),> 26 µM (inactive)
10,Cc1cc(C)c2cc(C(=O)N(C)C3CCN(C)CC3)[nH]c2c1,> 26 µM (inactive)
11,COC(=O)/C=C1/N/C(=N\c2nc(C)cc(C)n2)N(c2ccc(C)c(C)c2)C1=O,> 26 µM (inactive)
12,CCN1CC(CN(C)Cc2nc(COc3ccccc3)no2)CC1=O (stereo unspecified),> 26 µM (inactive)
13,Cc1ccc(NC2=NC3(CCCC3)N=C(N)N2)c(C)c1,> 26 µM (inactive)
14,COc1ccc(CCNc2ncnc3c2c(C)c(C)n3CCO)cc1OC,> 26 µM (inactive)
15,O=C(NC(=S)Nc1ccccc1C(F)(F)F)c1ccccc1F,19.3 µM
16,CC(C)(C)N(NS(=O)(=O)c1ccc(F)cc1)c1ccccc1,> 26 µM (inactive)
17,S=C(Nc1ccc(Cl)cc1)Nc1cccc2cnccc12,> 26 µM (inactive)
18,COC(=O)[C@@H]1C[C@]2(OC(=O)c3ccccc3)C=CC(=O)C[C@@H]2N1C(=O)OCc1ccccc1,12.4 µM
19,O=C(N/N=C/c1ccncc1)c1cc2ccccc2cc1O,25.2 µM
20,NC(=O)c1c(NC(=O)Cc2ccccc2)sc2c1CCN(Cc1ccccc1)C2,> 26 µM (inactive)
21,Cc1ccnc(N2CCCC(C(=O)Nc3ccc(C)c(C)c3)C2)n1 (stereo unspecified),> 26 µM (inactive)
22,CC(=O)N=c1sccn1CC(=O)c1ccc([N+](=O)[O-])cc1,> 26 µM (inactive)

row,Compound,AC40
1,COc1ccc(/C=C(\NC(=O)c2ccccc2)C(=O)N/N=C/c2sccc2C)cc1,> 26 µM (inactive)
2,O=C1c2cccc3cccc(c23)C(=O)N1OS(=O)(=O)c1ccccc1,16 µM
3,Cc1ccc2cccnc2c1NC(=S)NC(=O)c1ccccc1,> 26 µM (inactive)
4,CCOC(=O)C1=NN(C(=O)c2ccccc2)C(O)(c2ccc(C)cc2)C1 (stereo unspecified),8.91 µM
5,Cc1ccc2oc(C(=O)N3CCC(O)(c4cccc(C(F)(F)F)c4)CC3)c(C)c2c1,9.28 µM
6,CC1=C(Sc2nc3ccccc3[nH]2)C(=O)NC(C)(C)C1,> 26 µM (inactive)
7,CCOC(=O)c1cccc(NC(=O)Cn2c(CC(=O)NC)nc3ccccc32)c1,> 26 µM (inactive)
8,CC1(c2ccc([N+](=O)[O-])cc2)NC(=O)N(CC(=O)c2ccc3c(c2)OCO3)C1=O (stereo unspecified),> 26 µM (inactive)
9,COc1ccc(C2/C=C\CN(S(=O)(=O)/C=C/c3ccccc3)[C@H](Cc3ccccc3)C(=O)N2Cc2ccc(F)cc2)cc1 (stereo partly specified),> 26 µM (inactive)
10,O=C(O)CSc1c(-c2ccccc2)[nH]c2ccccc12,> 26 µM (inactive)
11,O=C(CSc1nnc(-c2c[nH]c3ccccc23)n1-c1ccc(F)cc1)NCc1ccco1,13.5 µM
12,Cn1nnc2c[n+](CC(=O)c3ccc4ccccc4c3)cc(Br)c21,> 26 µM (inactive)
13,CCOC(=O)N1CCC(NS(=O)(=O)c2ccc3c(c2)C(C)(C)C(=O)N3C)CC1,> 26 µM (inactive)
14,COCOc1cc(O)c(C(=O)/C=C/c2ccccc2)c(OCOC)c1,7.9 µM
15,Cc1ccc(C(=O)OCC(=O)c2ccc(Cl)s2)s1,15.1 µM
16,Cc1ccc(CN(C)C(=O)C2CCC(=O)N(CCc3ccccc3)C2)o1 (stereo unspecified),9.82 µM
17,O=C1c2ccccc2C(=O)N1CC(O)COc1ccc(Br)cc1 (stereo unspecified),13.7 µM
18,Cc1ccc(C(=O)CNc2ccc(Cl)cc2)cc1,> 26 µM (inactive)
